According to paper PMC5818264 (Journal of the American Chemical Society, 2017):

Columns and labels:
[1] = molecular target: T1, MelBEc (MelB homologue from E. coli) (Escherichia coli, UniProt P02921); assay: Trp to dansyl FRET in detergent extract of membrane vesicles; details: […] D^2G; D-NBM-C11; sugar binding site
[2] = molecular target: T2, MelBSt (melibiose permease of Salmonella typhimurium) (Salmonella enterica, UniProt P30878); assay: as above; details: […] D^2G; DDM or D-NBM-C11; sugar binding site
[3] = molecular target: LeuT (leucine transporter) (Aquifex aeolicus, UniProt O67854); assay: scintillation proximity assay; format: binding; details: labelled compound; DDM or NBMs at CMC + […] or […] wt %; room temperature
[4] = molecular target: T1, MelBEc (MelB homologue from E. coli); assay: reversal of Trp to D^2G FRET in detergent extract of membrane vesicles; format: binding; details: saturating melibiose; […] D^2G; D-NBM-C11; competitive
[5] = molecular target: T2, MelBSt (melibiose permease of Salmonella typhimurium); assay: as above; format: binding; details: saturating melibiose; […] D^2G; DDM or D-NBM-C11; competitive

T1 sequence (P02921 2-473): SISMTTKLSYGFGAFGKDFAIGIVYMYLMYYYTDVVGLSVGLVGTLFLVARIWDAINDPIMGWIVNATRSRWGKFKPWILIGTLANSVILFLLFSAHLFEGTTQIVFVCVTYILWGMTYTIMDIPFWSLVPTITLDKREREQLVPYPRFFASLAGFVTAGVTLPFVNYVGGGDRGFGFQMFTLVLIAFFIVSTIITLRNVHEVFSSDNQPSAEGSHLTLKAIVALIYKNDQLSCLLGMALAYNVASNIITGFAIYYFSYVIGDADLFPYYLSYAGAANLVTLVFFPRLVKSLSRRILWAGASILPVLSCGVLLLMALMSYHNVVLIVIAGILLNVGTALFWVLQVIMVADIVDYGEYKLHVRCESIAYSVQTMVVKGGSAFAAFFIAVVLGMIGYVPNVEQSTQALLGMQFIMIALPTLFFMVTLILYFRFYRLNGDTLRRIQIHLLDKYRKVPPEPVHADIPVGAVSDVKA
T2 sequence (P30878 whole entry): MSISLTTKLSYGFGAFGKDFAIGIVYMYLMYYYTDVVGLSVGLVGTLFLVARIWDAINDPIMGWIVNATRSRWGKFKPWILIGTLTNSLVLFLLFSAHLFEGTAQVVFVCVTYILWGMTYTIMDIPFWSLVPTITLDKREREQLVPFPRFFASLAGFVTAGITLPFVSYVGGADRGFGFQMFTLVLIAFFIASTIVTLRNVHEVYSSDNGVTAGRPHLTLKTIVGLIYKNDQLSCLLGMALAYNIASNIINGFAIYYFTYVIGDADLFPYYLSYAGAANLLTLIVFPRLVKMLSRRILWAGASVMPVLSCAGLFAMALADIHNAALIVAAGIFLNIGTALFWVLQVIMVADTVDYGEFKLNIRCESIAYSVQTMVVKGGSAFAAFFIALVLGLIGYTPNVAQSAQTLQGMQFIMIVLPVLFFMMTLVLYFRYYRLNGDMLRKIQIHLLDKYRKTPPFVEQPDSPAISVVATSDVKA

## CN(C)c1cccc2c(S(=O)(=O)NCCS[C@@H]3O[C@H](CO)[C@H](O)[C@H](O)[C@H]3O)cccc12 [2′-(N-dansyl) aminoalkyl-1-thio-β-D-galactopyranoside]
[1]
  Trp to dansyl FRET in detergent extract of membrane vesicles: both MelB proteins gave remarkable levels of galactoside binding in D-NBM-C11
[2]
  Trp to dansyl FRET in detergent extract of membrane vesicles: FRET from tryptophan residues (Trp) to a fluorescent ligand

## CC(C)C[C@H](N)C(=O)O [[^3H]-Leu]
[3]
  scintillation proximity assay: ability of the transporter to bind radiolabeled leucine [^3H-Leu]

## OC[C@H]1O[C@H](OC[C@H]2OC(O)[C@H](O)[C@@H](O)[C@@H]2O)[C@H](O)[C@@H](O)[C@H]1O (some centres unmarked) [melibiose]
[4]
  reversal of Trp to D^2G FRET in detergent extract of membrane vesicles: both MelB proteins gave remarkable levels of galactoside binding in D-NBM-C11
[5]
  reversal of Trp to D^2G FRET in detergent extract of membrane vesicles: MelBSt solubilized in DDM showed an effective melibiose reversal of FRET
